Columns and labels:
[1] = test system: K562 chronic myeloid leukemia cells; assay: Apoptosis detection with fluorogenic caspase substrate Caspalux6-J1D2 in bulk and in drops; assay type: cell-based; conditions: K562 cells treated with Imatinib for 24 hours; both bulk and drop experiment (FIG. 7)
Procedure: Single K562 chronic myeloid leukemia cells were introduced to the drug combinations by picoinjecting a cell suspension to the merged drops at a concentration known to obtain a Poisson distribution with rate λ (lambda)=0.1, and incubated at 37° C. for 24 hours.
By adding a fluorogenic substrate, caspalux6-J1D2, which is specifically cleaved by increased caspase 3 and caspase 3-like activities during apoptosis, apoptosis of cells in drops can be determined.

Leukemia K562 cells = assay: Apoptosis and necrosis by Annexin V / propidium iodide staining of cells in agarose gel particles; assay type: cell-based; conditions: 48 hr incubation, drops containing 20 micrograms/mL Imatinib mixed at a 1:1 ratio (10 micrograms/mL per FIG. 12), PI and Annexin V staining
Procedure: In this example, first cells are mixed with molten low melt agarose at 37° C. and together incorporated into droplets. […] An UltraPure low melting point agarose is used in this experiment, which melts at 65.5° C., remains fluid at 37° C. and becomes solid rapidly at temperatures below 25° C. […] In this example, agarose powder was dissolved into PBS and autoclaved to prepare a sterilized 2% (w/v) agarose solution. Cells were counted and suspend in a DMEM culture media with 40% fetal bovine serum, and the cell suspension was mixed with agarose solution at 1:1 volume ratio. The mixture of cells and agarose gel was flowed into the sample inlet of a microfluidic drop-making device, and HFE7500 oil with 2% surfactant was flowed into the oil inlet to cause the cell-containing agarose gel to produce 80 micrometer drops. The generated gel-in-oil drops were collected into a pre-cooled eppendorf tube in an ice bath.
The drops containing agarose gel particles were collected into a pre-cooled eppendorf tube, after which the injected cell-containing agarose gel remained spherical. In the following steps, the agarose gel particles were injected into the drop containing drug combination and drug barcodes, followed by incubation, destabilization, staining, washing and FACS to obtain the gel particles containing positive cells. […]

Structure (SMILES): Cc1ccc(NC(=O)c2ccc(CN3CCN(C)CC3)cc2)cc1Nc1nccc(-c2cccnc2)n1 [Imatinib]
- apoptotic signal (Caspalux6-J1D2 fluorescence) [1]: clear apoptotic signal
- apoptotic and necrotic cells (Leukemia K562 cells): About 70%
